Data published in PubChem BioAssay (NCI).
“And” between values parts separate entries of the source, which are not always exact repeats. Equal values may be shown once.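 Cultured in 96-well plates, cells were exposed to test compound for 48 hours across five concentrations. Here, GI50 denotes the concentration required for 50% inhibition of growth. TGI marks complete inhibition of growth.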

What was measured:
Experiment in all cases: NCI tumour cell line growth inhibition, 48 h
SW-620 colon = test system: SW-620 colon
CCRF-CEM leukemia = test system: CCRF-CEM leukemia
OVCAR-5 ovarian = test system: OVCAR-5 ovarian
UO-31 renal = test system: UO-31 renal
MDA-N = test system: MDA-N
SNB-75 CNS = test system: SNB-75 CNS
MCF7 breast = test system: MCF7 breast
MDA-MB-231 breast = test system: MDA-MB-231 breast
BT-549 breast = test system: BT-549 breast
UACC-62 melanoma = test system: UACC-62 melanoma
IGROV1 ovarian = test system: IGROV1 ovarian
HOP-62 NSCLC = test system: HOP-62 NSCLC
RXF 393 renal = test system: RXF 393 renal
OVCAR-4 ovarian = test system: OVCAR-4 ovarian
SK-MEL-5 melanoma = test system: SK-MEL-5 melanoma
LOX IMVI melanoma = test system: LOX IMVI melanoma
MOLT-4 leukemia = test system: MOLT-4 leukemia
EKVX NSCLC = test system: EKVX NSCLC
NCI-H23 lung = test system: NCI-H23 lung
DU-145 prostate = test system: DU-145 prostate
SF-268 CNS = test system: SF-268 CNS
SK-MEL-28 melanoma = test system: SK-MEL-28 melanoma
K-562 leukemia = test system: K-562 leukemia
NCI/ADR-RES ovarian = test system: NCI/ADR-RES ovarian
SF-295 CNS = test system: SF-295 CNS
SK-MEL-2 melanoma = test system: SK-MEL-2 melanoma
PC-3 prostate = test system: PC-3 prostate
SF-539 CNS = test system: SF-539 CNS
A549 NSCLC = test system: A549 NSCLC
DMS 273 small cell lung = test system: DMS 273 small cell lung
P388 leukemia = test system: P388 leukemia
HCT-116 colon = test system: HCT-116 colon
DMS 114 small cell lung = test system: DMS 114 small cell lung
SN12K1 renal = test system: SN12K1 renal
DLD-1 colon = test system: DLD-1 colon
NCI-H522 lung = test system: NCI-H522 lung
A498 renal = test system: A498 renal
HL-60(TB) leukemia = test system: HL-60(TB) leukemia
COLO 205 colon = test system: COLO 205 colon
SN12C renal = test system: SN12C renal
UACC-257 melanoma = test system: UACC-257 melanoma
KM20L2 colon = test system: KM20L2 colon
SNB-19 CNS = test system: SNB-19 CNS
OVCAR-8 ovarian = test system: OVCAR-8 ovarian
TK-10 renal = test system: TK-10 renal
RPMI-8226 leukemia = test system: RPMI-8226 leukemia
786-0 renal = test system: 786-0 renal
U251 CNS = test system: U251 CNS
HT29 colon = test system: HT29 colon
HOP-18 NSCLC = test system: HOP-18 NSCLC
P388/ADR leukemia = test system: P388/ADR leukemia

Structure (SMILES): O=CC(NC(=O)N(CCCl)N=O)C(O)C(O)C(O)CO (configuration not stated)
- GI50 (SW-620 colon): 171 µM and > 1250 µM
- TGI (SW-620 colon): 625 µM and > 1250 µM
- GI50 (CCRF-CEM leukemia): 207 µM and 515 µM
- TGI (CCRF-CEM leukemia): 625 µM and > 1250 µM
- GI50 (OVCAR-5 ovarian): > 625 µM
- TGI (OVCAR-5 ovarian): > 1250 µM
- TGI (UO-31 renal): > 1250 µM
- TGI (MDA-N): > 1220 µM
- GI50 (SNB-75 CNS): 146 µM
- TGI (SNB-75 CNS): 625 µM and 1050 µM
- GI50 (MCF7 breast): 485 µM
- TGI (MCF7 breast): 625 µM and > 1250 µM
- TGI (MDA-MB-231 breast): > 1250 µM
- TGI (BT-549 breast): > 1250 µM
- GI50 (UACC-62 melanoma): 18.5 µM
- TGI (UACC-62 melanoma): 185 µM and > 1250 µM and 939 µM
- GI50 (IGROV1 ovarian): 460 µM and > 1250 µM
- TGI (IGROV1 ovarian): 625 µM and > 1250 µM
- GI50 (HOP-62 NSCLC): 115 µM
- TGI (HOP-62 NSCLC): 536 µM and 422 µM
- GI50 (RXF 393 renal): 417 µM
- TGI (RXF 393 renal): 625 µM and > 1250 µM
- GI50 (OVCAR-4 ovarian): > 625 µM
- TGI (OVCAR-4 ovarian): > 1250 µM
- GI50 (SK-MEL-5 melanoma): 161 µM
- TGI (SK-MEL-5 melanoma): 625 µM and 647 µM
- GI50 (LOX IMVI melanoma): 50 µM and 303 µM and 78.7 µM
- TGI (LOX IMVI melanoma): 384 µM and > 1250 µM and 661 µM
- GI50 (MOLT-4 leukemia): 104 µM
- TGI (MOLT-4 leukemia): 625 µM and > 1060 µM
- GI50 (EKVX NSCLC): > 625 µM
- TGI (EKVX NSCLC): > 1250 µM
- GI50 (NCI-H23 lung): 233 µM and > 1250 µM
- TGI (NCI-H23 lung): 625 µM and > 1250 µM
- TGI (DU-145 prostate): > 1250 µM
- GI50 (SF-268 CNS): 19.8 µM and 137 µM
- GI50 (SK-MEL-28 melanoma): > 1250 µM
- TGI (SK-MEL-28 melanoma): > 1250 µM
- GI50 (K-562 leukemia): > 198 µM and 1040 µM
- TGI (K-562 leukemia): > 1250 µM
- GI50 (NCI/ADR-RES ovarian): 499 µM and > 1250 µM
- TGI (NCI/ADR-RES ovarian): 625 µM and > 1250 µM
- GI50 (SF-295 CNS): 31.5 µM
- TGI (SF-295 CNS): 625 µM and 764 µM
- GI50 (SK-MEL-2 melanoma): > 625 µM
- TGI (SK-MEL-2 melanoma): > 1250 µM
- TGI (PC-3 prostate): > 1250 µM
- GI50 (SF-539 CNS): 40 µM and 255 µM
- TGI (SF-539 CNS): 483 µM and > 1250 µM and 614 µM
- GI50 (A549 NSCLC): 162 µM and 584 µM
- TGI (A549 NSCLC): 625 µM and > 1250 µM
- GI50 (DMS 273 small cell lung): 218 µM and > 1250 µM
- TGI (DMS 273 small cell lung): 625 µM and > 1250 µM and > 1210 µM
- TGI (P388 leukemia): > 1250 µM
- GI50 (HCT-116 colon): 302 µM and 1030 µM and 467 µM
- TGI (HCT-116 colon): 625 µM and > 1250 µM and > 992 µM
- GI50 (DMS 114 small cell lung): 218 µM and > 1250 µM
- TGI (DMS 114 small cell lung): 625 µM and > 1250 µM
- GI50 (SN12K1 renal): 133 µM and 290 µM
- TGI (SN12K1 renal): 625 µM and > 1250 µM
- GI50 (DLD-1 colon): > 625 µM
- TGI (DLD-1 colon): > 1250 µM
- GI50 (NCI-H522 lung): > 625 µM
- TGI (NCI-H522 lung): > 1250 µM
- GI50 (A498 renal): > 1250 µM
- TGI (A498 renal): > 1250 µM
- GI50 (HL-60(TB) leukemia): 144 µM and 420 µM
- TGI (HL-60(TB) leukemia): 625 µM and > 1250 µM and 1070 µM
- GI50 (COLO 205 colon): > 625 µM
- TGI (COLO 205 colon): > 1250 µM
- GI50 (SN12C renal): 206 µM and > 1250 µM
- TGI (SN12C renal): 625 µM and > 1250 µM
- GI50 (UACC-257 melanoma): > 625 µM
- TGI (UACC-257 melanoma): > 1250 µM
- GI50 (KM20L2 colon): > 625 µM
- TGI (KM20L2 colon): > 1250 µM
- GI50 (SNB-19 CNS): 62.6 µM and 384 µM
- TGI (SNB-19 CNS): 625 µM and > 1250 µM
- GI50 (OVCAR-8 ovarian): > 625 µM and 587 µM
- TGI (OVCAR-8 ovarian): > 1250 µM
- TGI (TK-10 renal): > 1250 µM
- GI50 (RPMI-8226 leukemia): 497 µM and > 1250 µM
- TGI (RPMI-8226 leukemia): 625 µM and > 1250 µM
- TGI (786-0 renal): 593 µM
- GI50 (U251 CNS): 69.2 µM and 105 µM
- TGI (U251 CNS): 625 µM and > 1250 µM
- GI50 (HT29 colon): > 625 µM
- TGI (HT29 colon): > 1250 µM
- GI50 (HOP-18 NSCLC): > 625 µM
- TGI (HOP-18 NSCLC): > 1250 µM
- GI50 (P388/ADR leukemia): 34.5 µM and 65 µM
- TGI (P388/ADR leukemia): 360 µM and > 1250 µM
